Experimental data reported in publication PMC8432876, “Acetylcholine esterase inhibitory activity of green synthesized nanosilver by naphthopyrones isolated from marine-derived Aspergillus niger” (PLoS ONE, 2021).

Biological target: acetylcholine esterase AChE (Homo sapiens, UniProt P22303)
Assay: biochemical
Assay type: biochemical
Settings: Ellman's method; for IC50: AChEI activity
Description: Acetylcholine esterase inhibitory activity of isolated compounds and their synthesized silver nanoparticles were assessed using Ellman’s method as previously prescribed.
Acetylcholine esterase inhibitory (AChEI) activity was assessed by using Ellman’s method.

Sequence of acetylcholine esterase AChE (P22303 32-614): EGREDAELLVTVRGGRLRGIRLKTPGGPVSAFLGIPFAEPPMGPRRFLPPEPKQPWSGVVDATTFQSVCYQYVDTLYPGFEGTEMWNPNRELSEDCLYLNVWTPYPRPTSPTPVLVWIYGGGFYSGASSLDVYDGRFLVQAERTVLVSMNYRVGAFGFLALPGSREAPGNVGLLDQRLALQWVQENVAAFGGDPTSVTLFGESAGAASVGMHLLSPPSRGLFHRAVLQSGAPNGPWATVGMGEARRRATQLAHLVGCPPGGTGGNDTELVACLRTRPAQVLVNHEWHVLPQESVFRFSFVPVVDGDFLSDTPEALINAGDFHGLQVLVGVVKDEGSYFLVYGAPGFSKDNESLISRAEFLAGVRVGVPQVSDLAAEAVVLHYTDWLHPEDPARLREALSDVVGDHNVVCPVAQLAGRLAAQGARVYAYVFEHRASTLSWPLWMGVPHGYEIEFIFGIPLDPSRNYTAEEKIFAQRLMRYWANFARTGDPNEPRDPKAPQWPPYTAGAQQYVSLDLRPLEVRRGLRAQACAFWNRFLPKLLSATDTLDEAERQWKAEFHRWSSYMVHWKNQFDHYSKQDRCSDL

SMILES	IC50	AChE inhibitory activity (in words)
COc1cc(OC)c2c(O)c3c(=O)cc(C)oc3c(-c3c(OC)cc4cc5oc(C)cc(=O)c5c(O)c4c3OC)c2c1 [Aurasperone A (3), Aurasperone A]	4.9 ± 2.16 µM	–
NC(=O)c1c[nH]c(Cc2ccccc2)cc1=O [Asperginin A (7), Aspernigrin A]	20.2 ± 3.03 µM	–
COc1cc(OC)c2c(c1)cc(O)c1c(=O)cc(C)oc12 [Flavasperone (1), Flavasperone]	> 25 µM	didn’t show any inhibitory activity
COc1cc(OC)c2c(O)c3c(=O)cc(C)oc3cc2c1 [Rubrofusarin B (2), Rubrofusarin B]	13.9 ± 2.16 µM	moderate inhibitory activity
COc1cc(OC)c2c(O)c3c(=O)cc(C)oc3c(-c3c(OC)cc4cc(O)c5c(=O)cc(C)oc5c4c3OC)c2c1 [Fonsecinone A (4), Fonsecinone A]	7.52 ± 2.16 µM	–
